Laboratory results published in ChEMBL document CHEMBL3124747, “Formosusin A, a novel specific inhibitor of mammalian DNA polymerase β from the fungus Paecilomyces formosus” (Bioorg Med Chem, 2014).

Experiments:
[1] = Inhibition of calf DNA primase of polymerase alpha assessed as inhibition of incorporation of dTTP into poly(dA)/oligo(dT)18 after 60 mins; design: species or system Bos taurus
[2] = Inhibition of cherry salmon DNA polymerase delta assessed as inhibition of incorporation of dTTP into poly(dA)/oligo(dT)18 after 60 mins; design: species or system Oncorhynchus masou
DNA polymerase eta = target: T1, DNA polymerase eta (Homo sapiens, UniProt Q9Y253); test: Inhibition of C-terminal His-6-tagged human DNA polymerase eta expressed in Escherichia coli assessed as inhibition of incorporation of dTTP into poly(dA)/oligo(dT)18 after 60 mins
T1 sequence (Q9Y253 whole entry): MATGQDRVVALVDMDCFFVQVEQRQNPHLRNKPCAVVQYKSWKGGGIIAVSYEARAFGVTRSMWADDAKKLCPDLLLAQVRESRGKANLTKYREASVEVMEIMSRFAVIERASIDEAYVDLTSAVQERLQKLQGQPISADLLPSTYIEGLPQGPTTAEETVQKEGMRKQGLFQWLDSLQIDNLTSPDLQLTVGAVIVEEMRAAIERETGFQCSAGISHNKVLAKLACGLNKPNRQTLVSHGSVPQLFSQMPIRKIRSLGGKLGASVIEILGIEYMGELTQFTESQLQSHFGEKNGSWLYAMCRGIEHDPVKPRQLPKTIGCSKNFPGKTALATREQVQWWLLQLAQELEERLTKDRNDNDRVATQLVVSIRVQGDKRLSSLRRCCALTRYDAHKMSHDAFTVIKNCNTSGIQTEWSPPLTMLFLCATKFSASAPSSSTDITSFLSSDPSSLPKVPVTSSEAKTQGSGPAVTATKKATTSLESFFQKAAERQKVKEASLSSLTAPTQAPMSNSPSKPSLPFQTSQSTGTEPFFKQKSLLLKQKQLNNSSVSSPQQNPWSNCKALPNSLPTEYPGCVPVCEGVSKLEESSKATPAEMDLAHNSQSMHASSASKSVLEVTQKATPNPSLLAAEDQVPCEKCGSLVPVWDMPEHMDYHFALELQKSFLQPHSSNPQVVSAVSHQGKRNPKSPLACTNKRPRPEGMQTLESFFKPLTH

[3] = target: DNA nucleotidylexotransferase (Bos taurus, UniProt P06526); test: Inhibition of calf thymus TdT assessed as inhibition of incorporation of dTTP into oligo(dT)18(3'OH) after 60 mins
[4] = target: T2, DNA polymerase delta catalytic subunit (Homo sapiens, UniProt P28340); test: Inhibition of DNA polymerase delta isolated from human MOLT4 cells assessed as inhibition of incorporation of dTTP into poly(dA)/oligo(dT)18 after 60 mins; assay type: cell-free, MOLT-4
T2 sequence (P28340 whole entry): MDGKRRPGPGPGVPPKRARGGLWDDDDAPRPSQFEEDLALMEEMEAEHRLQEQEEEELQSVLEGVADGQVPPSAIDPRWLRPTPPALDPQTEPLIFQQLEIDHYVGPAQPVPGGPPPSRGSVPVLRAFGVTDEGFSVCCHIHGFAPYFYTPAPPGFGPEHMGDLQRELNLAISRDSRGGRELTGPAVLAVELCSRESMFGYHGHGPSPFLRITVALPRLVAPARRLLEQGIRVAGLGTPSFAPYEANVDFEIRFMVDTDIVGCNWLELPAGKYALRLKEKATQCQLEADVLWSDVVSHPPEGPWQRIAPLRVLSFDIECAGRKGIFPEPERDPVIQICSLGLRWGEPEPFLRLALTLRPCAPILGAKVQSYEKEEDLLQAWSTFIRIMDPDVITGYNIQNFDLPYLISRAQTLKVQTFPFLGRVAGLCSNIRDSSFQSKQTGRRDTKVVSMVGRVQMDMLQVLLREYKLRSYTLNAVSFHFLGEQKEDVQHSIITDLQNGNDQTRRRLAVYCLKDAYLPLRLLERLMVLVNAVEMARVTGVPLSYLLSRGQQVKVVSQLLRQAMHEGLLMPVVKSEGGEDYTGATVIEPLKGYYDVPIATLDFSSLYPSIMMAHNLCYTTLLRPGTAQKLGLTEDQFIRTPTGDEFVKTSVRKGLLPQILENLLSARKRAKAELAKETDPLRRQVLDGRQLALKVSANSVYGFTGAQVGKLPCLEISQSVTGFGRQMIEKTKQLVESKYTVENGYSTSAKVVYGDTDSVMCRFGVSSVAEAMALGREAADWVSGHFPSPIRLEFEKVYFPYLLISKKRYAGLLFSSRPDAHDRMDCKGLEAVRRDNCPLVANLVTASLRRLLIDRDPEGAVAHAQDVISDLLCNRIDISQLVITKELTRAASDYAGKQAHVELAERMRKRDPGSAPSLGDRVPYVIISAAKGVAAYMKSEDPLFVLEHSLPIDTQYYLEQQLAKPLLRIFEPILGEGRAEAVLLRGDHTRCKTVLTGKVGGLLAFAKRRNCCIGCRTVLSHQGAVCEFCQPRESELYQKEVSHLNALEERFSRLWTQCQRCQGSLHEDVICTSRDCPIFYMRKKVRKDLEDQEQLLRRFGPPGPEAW

Measured: IC50

DNA nucleotidylexotransferase, sequence (P06526 whole entry): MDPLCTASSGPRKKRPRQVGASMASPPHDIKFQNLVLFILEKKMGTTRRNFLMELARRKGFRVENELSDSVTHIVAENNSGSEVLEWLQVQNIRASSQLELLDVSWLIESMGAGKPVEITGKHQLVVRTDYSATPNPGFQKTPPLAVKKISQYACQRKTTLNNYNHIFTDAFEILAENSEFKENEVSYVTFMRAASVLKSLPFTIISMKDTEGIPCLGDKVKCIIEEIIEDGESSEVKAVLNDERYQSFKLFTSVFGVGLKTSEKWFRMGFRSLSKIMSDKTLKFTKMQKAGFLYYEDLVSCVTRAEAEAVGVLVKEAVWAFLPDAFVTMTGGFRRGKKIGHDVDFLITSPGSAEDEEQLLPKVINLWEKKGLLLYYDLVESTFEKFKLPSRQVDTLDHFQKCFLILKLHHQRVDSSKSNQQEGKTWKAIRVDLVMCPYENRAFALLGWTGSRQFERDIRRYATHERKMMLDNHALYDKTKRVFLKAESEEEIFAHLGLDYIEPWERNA

CCCC[C@@H](O)/C=C(C)/C=C/C=C/C(=O)N1CCCC1=O [PECILOCIN]
> 200 µM: all assays above

CC(/C=C/CCC(=O)N1CCCC1=O)=C\C1CCCCO1 (stereo not given)
> 200 µM: all assays above

CCCCC(=O)/C=C(C)/C=C/CCC(=O)N1CCCC1=O
> 200 µM: all assays above

CCCC[C@@H](O)/C=C(C)/C=C/C=C\C(=O)N1CCCC1=O
> 200 µM: all assays above
